Source: patent US7371766B2, “Curcumin analogs with anti-tumor and anti-angiogenic properties” (Emory University, priority 1999, dated 2008)
Read-outs that look alike come from different tables or passages of the source.

Tests used:
[1] = test system: HS 578T; assay: cells; settings: Homo sapiens, 48 h; for GI50: read-out: Median Growth Inhibitory Concentration (GI50); for CC50: read-out: Median Lethal Concentration (LC50)
[2] = test system: SK-OV-3; assay: cells; settings: Homo sapiens, SK-OV-3, 48 h; for GI50: read-out: Median Growth Inhibitory Concentration (GI50); for CC50: read-out: Median Lethal Concentration (LC50)
[3] = test system: COLO 205; assay: cells; settings: Homo sapiens, COLO 205, 48 h; for GI50: read-out: Median Growth Inhibitory Concentration (GI50); for CC50: read-out: Median Lethal Concentration (LC50)
[4] = test system: EKVX; assay: cells; settings: Homo sapiens, 48 h; for GI50: read-out: Median Growth Inhibitory Concentration (GI50); for CC50: read-out: Median Lethal Concentration (LC50)
[5] = test system: NCI-H522; assay: cells; settings: Homo sapiens, NCI-H522, 48 h; for GI50: read-out: Median Growth Inhibitory Concentration (GI50); for CC50: read-out: Median Lethal Concentration (LC50)
[6] = test system: NCI-H23; assay: cells; settings: Homo sapiens, NCI-H23, 48 h; for GI50: read-out: Median Growth Inhibitory Concentration (GI50); for CC50: read-out: Median Lethal Concentration (LC50)
[7] = test system: MDA-MB-435; assay: cells; settings: Homo sapiens, MDA-MB-435, 48 h; for GI50: read-out: Median Growth Inhibitory Concentration (GI50); for CC50: read-out: Median Lethal Concentration (LC50)
[8] = test system: TK-10; assay: cells; settings: Homo sapiens, TK-10, 48 h; for GI50: read-out: Median Growth Inhibitory Concentration (GI50); for CC50: read-out: Median Lethal Concentration (LC50)
[9] = test system: HL-60 (TB); assay: cells; settings: Homo sapiens, HL-60, 48 h; for GI50: read-out: Median Growth Inhibitory Concentration (GI50); for CC50: read-out: Median Lethal Concentration (LC50)
[10] = test system: A549; assay: cells; settings: Homo sapiens, A549, 48 h; for GI50: read-out: Median Growth Inhibitory Concentration (GI50); for CC50: read-out: Median Lethal Concentration (LC50)
[11] = test system: SR; assay: cells; settings: Homo sapiens, 48 h; for GI50: read-out: Median Growth Inhibitory Concentration (GI50); for CC50: read-out: Median Lethal Concentration (LC50)
[12] = test system: MCF-7; assay: cells; settings: Homo sapiens, MCF7, 48 h; for GI50: read-out: Median Growth Inhibitory Concentration (GI50); for CC50: read-out: Median Lethal Concentration (LC50)
[13] = test system: MDA-MB-231; assay: cells; settings: Homo sapiens, MDA-MB-231, 48 h; for GI50: read-out: Median Growth Inhibitory Concentration (GI50); for CC50: read-out: Median Lethal Concentration (LC50)
[14] = test system: HCT-116; assay: cells; settings: Homo sapiens, HCT-116, 48 h; for GI50: read-out: Median Growth Inhibitory Concentration (GI50); for CC50: read-out: Median Lethal Concentration (LC50)
[15] = test system: SK-MEL-2; assay: cells; settings: Homo sapiens, SK-MEL-2, 48 h; for GI50: read-out: Median Growth Inhibitory Concentration (GI50); for CC50: read-out: Median Lethal Concentration (LC50)
[16] = test system: NCI-H226; assay: cells; settings: Homo sapiens, NCI-H226, 48 h; for GI50: read-out: Median Growth Inhibitory Concentration (GI50); for CC50: read-out: Median Lethal Concentration (LC50)
[17] = test system: SK-MEL-5; assay: cells; settings: Homo sapiens, SK-MEL-5, 48 h; for GI50: read-out: Median Growth Inhibitory Concentration (GI50); for CC50: read-out: Median Lethal Concentration (LC50)
[18] = test system: KM12; assay: cells; settings: Homo sapiens, KM12, 48 h; for GI50: read-out: Median Growth Inhibitory Concentration (GI50); for CC50: read-out: Median Lethal Concentration (LC50)
[19] = test system: Sixty human tumor cell lines; assay: cells; settings: 48 h; for GI50: read-out: Median Growth Inhibitory Concentration (GI50), Mean; for CC50: read-out: Median Lethal Concentration (LC50), Mean
[20] = test system: SW-620; assay: cells; settings: Homo sapiens, SW-620, 48 h; for GI50: read-out: Median Growth Inhibitory Concentration (GI50); for CC50: read-out: Median Lethal Concentration (LC50)
[21] = test system: UACC-257; assay: cells; settings: Homo sapiens, UACC-257, 48 h; for GI50: read-out: Median Growth Inhibitory Concentration (GI50); for CC50: read-out: Median Lethal Concentration (LC50)
[22] = test system: CCRF-CEM; assay: cells; settings: Homo sapiens, 48 h; for GI50: read-out: Median Growth Inhibitory Concentration (GI50); for CC50: read-out: Median Lethal Concentration (LC50)
[23] = test system: U251; assay: cells; settings: Homo sapiens, U-251, 48 h; for GI50: read-out: Median Growth Inhibitory Concentration (GI50); for CC50: read-out: Median Lethal Concentration (LC50)
[24] = test system: 786-0; assay: cells; settings: Homo sapiens, 786-0, 48 h; for GI50: read-out: Median Growth Inhibitory Concentration (GI50); for CC50: read-out: Median Lethal Concentration (LC50)
[25] = test system: SF-539; assay: cells; settings: Homo sapiens, SF-539, 48 h; for GI50: read-out: Median Growth Inhibitory Concentration (GI50); for CC50: read-out: Median Lethal Concentration (LC50)
[26] = test system: T-47D; assay: cells; settings: Homo sapiens, T47D, 48 h; for GI50: read-out: Median Growth Inhibitory Concentration (GI50); for CC50: read-out: Median Lethal Concentration (LC50)
[27] = test system: SNB-19; assay: cells; settings: Homo sapiens, SNB-19, 48 h; for GI50: read-out: Median Growth Inhibitory Concentration (GI50); for CC50: read-out: Median Lethal Concentration (LC50)
[28] = test system: RPMI-7951 human melanoma; assay: Neutral Red Assay, cell viability, RPMI-7951; settings: for Cell Viability / Neutral Red Uptake, %: RPMI-7951; for Cell Viability: DMSO = 100; for Neutral Red Uptake, %: 72 hours
[29] = test system: Sixty human tumor cell lines; settings: for GI50: read-out: Median Growth Inhibitory Concentration (GI50), Mean, Mean over the NCI cell lines
[30] = NCI Anti-Tumor Screen, several cell types

OC(CCc1ccc(F)cc1F)CCc1ccc(F)cc1F [EF19, 1,5-Bis(2,4-difluorophenyl)-pentan-3-ol]
GI50 [1]: 21.9 µM | CC50 [1]: > 100 µM | GI50 [2]: 18.5 µM | CC50 [2]: 65.9 µM | GI50 [3]: 17.5 µM | CC50 [3]: 55.9 µM | GI50 [4]: 17.5 µM | CC50 [4]: 57.7 µM | GI50 [5]: 18.2 µM | CC50 [5]: 75.4 µM | GI50 [6]: 22.8 µM | CC50 [6]: 96.8 µM | GI50 [7]: 17.1 µM | CC50 [7]: 55.6 µM | GI50 [8]: 17.4 µM | CC50 [8]: 56.3 µM | GI50 [9]: 18.1 µM | CC50 [9]: 66.8 µM | GI50 [10]: 18 µM | CC50 [10]: 65.8 µM | GI50 [11]: 22.7 µM | CC50 [11]: 82.6 µM | GI50 [12]: 17.7 µM | CC50 [12]: 57.1 µM | GI50 [13]: 22.4 µM | CC50 [13]: 66.3 µM | GI50 [14]: 17.8 µM | CC50 [14]: 56.3 µM | GI50 [15]: 18.4 µM | CC50 [15]: 57 µM | GI50 [16]: 19.9 µM | CC50 [16]: 75.7 µM | GI50 [17]: 17.1 µM | CC50 [17]: 55.5 µM | GI50 [18]: 17.6 µM | CC50 [18]: 56.1 µM | GI50 [19]: 17.8 µM | CC50 [19]: 64.6 µM | GI50 [20]: 17.7 µM | CC50 [20]: 63.7 µM | GI50 [21]: 17.9 µM | CC50 [21]: 56.3 µM | GI50 [22]: 18.2 µM | CC50 [22]: 72.3 µM | GI50 [23]: 17.4 µM | CC50 [23]: 55.8 µM | GI50 [24]: 17 µM | CC50 [24]: 55.4 µM | GI50 [25]: 16.9 µM | CC50 [25]: 55.3 µM | GI50 [26]: 15.5 µM | CC50 [26]: 68.9 µM | GI50 [27]: 16.1 µM | CC50 [27]: 57.3 µM

CC1(/C=C/c2ccccc2O)C=Cc2ccccc2O1 (stereo not shown) [EF7]
GI50 [1]: 22.4 µM | CC50 [1]: > 100 µM | GI50 [2]: 16.6 µM | CC50 [2]: 56.2 µM | GI50 [3]: 17.5 µM | CC50 [3]: 55.9 µM | GI50 [4]: 17.3 µM | CC50 [4]: 56.6 µM | GI50 [5]: 16.2 µM | CC50 [5]: > 100 µM | GI50 [6]: 17.6 µM | CC50 [6]: 62.9 µM | GI50 [7]: 17.5 µM | CC50 [7]: 56 µM | GI50 [8]: 17.4 µM | CC50 [8]: 55.9 µM | GI50 [9]: 17.7 µM | CC50 [9]: 76 µM | GI50 [10]: 14.9 µM | CC50 [10]: 53.3 µM | GI50 [11]: 15.2 µM | CC50 [11]: 76.8 µM | GI50 [12]: 18 µM | CC50 [12]: 65.9 µM | GI50 [13]: 19.8 µM | CC50 [13]: 74.6 µM | GI50 [14]: 17.6 µM | CC50 [14]: 57.6 µM | viability at 20 µM ([28]; Homo sapiens, RPMI-7951, read-out: Cell Viability): 78% | GI50 [15]: 16.8 µM | CC50 [15]: 57 µM | GI50 [16]: 18.7 µM | CC50 [16]: 78.8 µM | GI50 [17]: 15.5 µM | CC50 [17]: 53.7 µM | GI50 [18]: 17.1 µM | CC50 [18]: 55.5 µM | GI50 [19]: 15.8 µM | CC50 [19]: 61.7 µM | GI50 [20]: 16.2 µM | CC50 [20]: 65.9 µM | GI50 [21]: 16.9 µM | CC50 [21]: 55.2 µM | GI50 [22]: 12.5 µM | CC50 [22]: 79.5 µM | GI50 [23]: 16.1 µM | CC50 [23]: 54.4 µM | GI50 [24]: 16.4 µM | CC50 [24]: 54.8 µM | GI50 [25]: 17.3 µM | CC50 [25]: 55.7 µM | GI50 [26]: 7.7 µM | CC50 [26]: 55.4 µM | GI50 [27]: 17.5 µM | CC50 [27]: 55.9 µM

O=C1C(=Cc2ccccc2O)COCC1=Cc1ccccc1O [EF25, 3,5-Bis(2-hyrdoxybenzylidene)tetrahydro4-H-pyran4-one]
GI50 compared with CISPLATIN, in words [29, 30]: lower GI50 than the chemotherapeutic agent CISPLATIN for several cell types | LC50 compared with CISPLATIN, in words [29, 30]: lower LC50 than the chemotherapeutic agent CISPLATIN for several cell types | GI50 ([29]; 48 hours): 1.1 µM | CC50 ([29]; read-out: Median Lethal Concentration (LC50), Mean, Mean over the cell line panel, 48 hours, SRB assay): 24.2 µM | Cell Viability ([28]; 5 μM): 12%

N.N.[Cl][Pt][Cl] [Cisplatin, reference compound]
GI50 ([29]; 48 hours): 0.7 µM | Neutral Red Uptake, % ([28]; 5 μM): 100 % of control | Neutral Red Uptake, % ([28]; 20 μM): 100 % of control

3,5-Bis(2-hydroxybenzylidene)-sulfone [EF11]
GI50 ([29]; 48 hours): 34.7 µM | Cell Viability ([28]; 20 μM): 93%

C(=C\c1ccccc1)/S/C=C/c1ccccc1 [EF15]
GI50 ([29]; 48 hours): 75.9 µM | Neutral Red Uptake, % ([28]; 5 μM): 100 % of control | Cell Viability ([28]; 5 μM): 112% | Neutral Red Uptake, % ([28]; 20 μM): 100 % of control | Cell Viability ([28]; 20 μM): 111%
